Measurements taken from publication PMC12220852, “An adamantane‐based ligand as a novel chemical tool for thermosensory TRPM8 channel therapeutic modulation” (The Febs Journal, 2025).
“Also recorded” adds a separate entry of the source.

How the values were obtained:
hTRPA1 = target: T1, hTRPA1 (Homo sapiens, UniProt O75762); test: Whole-cell patch-clamp of AITC-evoked currents in HEK293 cells expressing hTRPA1; type: cell-based; settings: −60 mV
T1 construct: expressed in transfected cells; host or cells: HEK293 (transient, Lipofectamine 3000)
Description: To evaluate receptor selectivity, we investigated the activity of compound 23 on recombinant hTRPV1 and hTRPA1 channels recombinantly expressed in HEK293 cells (Fig. 4). We choose these thermosensory channels because of their structural similarity and expression in peripheral nociceptive terminals. In addition, some ligand cross‐interaction within these channels has been reported.
Recording through patch‐clamp techniques was performed on HEK293 cells cultured in DMEM GlutaMax with 10% FBS and 1% P/S. The cell lines were authenticated following the standardization of STR Profiling guidelines (ANSI/ATCC ASN‐0002‐2022) using the CLA Identifier Plus PCR Amplification Kit (Thermo Fisher‐A44660) to analyze 16 highly variant human STRs. The cells were confirmed to be mycoplasma‐free. These cells were transiently transfected with plasmids encoding hTRPV1, hTRPM8, or hTRPA1 using Lipofectamine 3000. Transfected cells were seeded on 12 mm Ø glass coverslips treated with poly‐L‐lysine solution and recorded 2 days post‐transfection. The intracellular pipette solution included (in mM) 150 NaCl, 3 MgCl2, 5 EGTA, and 10 HEPES, pH 7.2 with CsOH, while the extracellular solution contained (in mM) 150 NaCl, 6 CsCl, 1 MgCl2, 1.5 CaCl2, 10 glucose, and 10 HEPES, pH 7.4 with NaOH. An EPC‐10 amplifier with Patchmaster software was used in whole‐cell experiments. Patch pipettes, created from thin‐wall borosilicate capillary glass tubing, were pulled with a Micropipette puller to a final resistance of 2–8 MΩ when filled with the internal solution. Recordings were acquired at 10 kHz and low‐pass filtered at 3 kHz, discarding recordings with leak currents > 200pA or series resistance > 20 MΩ. In voltage‐clamp recordings, cells were held at a constant potential, and the application of modulators was carried out using a gravity‐driven perfusion system. […] Leak currents were not subtracted, and conductance was calculated using the equation: G = I/(V − V r), where I is the measured ionic current, V is the applied voltage, and V r is the reversal potential that for the ionic conditions used was set to 0 mV. […]

[1] = test system: oxaliplatin‐induced peripheral cold allodynia in mice; test: Acetone drop test in oxaliplatin-induced cold allodynia; type: in vivo, mouse; settings: 30 and 90 min after administration, oxaliplatin-treated mice
Description: Given the inhibitory activity of compound 23 and the antinociceptive effects of TRPM8 antagonists described in models of oxaliplatin (OXP)‐induced neuropathy, we conducted a behavioral experiment in mice to assess the antinociceptive effects of compound 23 after repeated oxaliplatin administration. Oxaliplatin was intraperitoneally (i.p.) administered every other day for 5 days at 6 mg·kg^−1, reaching a total accumulative dose of 18 mg·kg^−1. […]
(§1) The systemic effect of compound 23 was assessed after intraperitoneal administration at 5 mg·kg^−1, dissolved in a solution of 2% Cremophor and 5% DMSO in saline, with a volume of 10 mL·kg^−1. […] Nociceptive sensitivity was evaluated for 30‐ and 90‐min postinjection using the acetone drop test (7 days after the first oxaliplatin dose) and the dry ice test (9 days after the last oxaliplatin dose).
The local effect of compound 23 or its vehicle was assessed 11 days after beginning the oxaliplatin treatment through subcutaneous intraplantar injection of 1 μg compound 23 or vehicle (2% Cremophor and 5% DMSO in saline) in the ventral side of the right hind paw, administered in a volume of 10 μL [66]. […] Nociceptive sensitivity was evaluated 30 and 90 min after the intraplantar injection with the acetone test. […]

[2] = test system: oxaliplatin‐induced peripheral cold allodynia in mice; test: Dry ice test in oxaliplatin-induced cold allodynia; type: in vivo, mouse; settings: 5 mg·kg^−1 i.p., 30 and 90 min after administration, vs vehicle, oxaliplatin-treated mice
Description: Given the inhibitory activity of compound 23 and the antinociceptive effects of TRPM8 antagonists described in models of oxaliplatin (OXP)‐induced neuropathy, we conducted a behavioral experiment in mice to assess the antinociceptive effects of compound 23 after repeated oxaliplatin administration. Oxaliplatin was intraperitoneally (i.p.) administered every other day for 5 days at 6 mg·kg^−1, reaching a total accumulative dose of 18 mg·kg^−1. […] The OXP‐induced sensitization to cold stimuli was also evident with the dry ice test, as evidenced by the significant reduction in the latency to cold stimulation through the application of a dry ice pellet against the paw on a glass surface (Fig. 8B, P < 0.05 Before OXP vs. After OXP). […]
as §1
The dry ice test was conducted as previously described with some modifications. […] To determine the threshold value for each mouse, the latency to paw withdrawal was recorded for each hindpaw and subsequently averaged. […]

T1 sequence (O75762 whole entry): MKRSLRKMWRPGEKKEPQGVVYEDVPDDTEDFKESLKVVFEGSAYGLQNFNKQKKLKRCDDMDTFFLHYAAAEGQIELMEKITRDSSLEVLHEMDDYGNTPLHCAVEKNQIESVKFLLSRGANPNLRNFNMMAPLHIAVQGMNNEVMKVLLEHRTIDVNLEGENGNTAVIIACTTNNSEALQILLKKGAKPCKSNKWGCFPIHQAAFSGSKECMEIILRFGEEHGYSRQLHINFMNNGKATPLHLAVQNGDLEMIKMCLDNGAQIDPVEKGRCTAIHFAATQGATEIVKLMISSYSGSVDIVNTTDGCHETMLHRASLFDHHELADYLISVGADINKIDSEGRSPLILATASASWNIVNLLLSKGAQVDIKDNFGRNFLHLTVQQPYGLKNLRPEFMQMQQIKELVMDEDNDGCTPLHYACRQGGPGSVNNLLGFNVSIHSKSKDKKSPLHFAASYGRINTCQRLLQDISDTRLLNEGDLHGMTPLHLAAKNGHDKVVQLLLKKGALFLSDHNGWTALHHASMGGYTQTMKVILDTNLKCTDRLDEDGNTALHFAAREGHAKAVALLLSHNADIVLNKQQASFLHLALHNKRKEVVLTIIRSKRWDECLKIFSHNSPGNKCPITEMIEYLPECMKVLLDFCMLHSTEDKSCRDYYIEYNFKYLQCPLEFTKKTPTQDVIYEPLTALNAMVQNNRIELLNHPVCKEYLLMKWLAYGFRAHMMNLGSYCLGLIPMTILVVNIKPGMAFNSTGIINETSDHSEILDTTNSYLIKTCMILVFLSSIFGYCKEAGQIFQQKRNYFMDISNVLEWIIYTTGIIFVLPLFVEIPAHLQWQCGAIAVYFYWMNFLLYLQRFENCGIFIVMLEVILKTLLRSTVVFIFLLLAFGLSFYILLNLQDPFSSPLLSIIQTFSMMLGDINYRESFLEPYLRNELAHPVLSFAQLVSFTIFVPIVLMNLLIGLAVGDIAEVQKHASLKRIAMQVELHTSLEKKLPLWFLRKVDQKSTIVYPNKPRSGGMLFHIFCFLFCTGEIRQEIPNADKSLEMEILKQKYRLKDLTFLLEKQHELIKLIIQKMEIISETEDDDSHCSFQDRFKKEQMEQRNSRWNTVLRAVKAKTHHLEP

block of hTRPA1‐evoked (AITC) current (hTRPA1; 5 μM compound, 60 μM AITC): ≈ 60% | IC50 (hTRPA1; AITC-evoked current, n = 8, read-out: IC50 of hTRPA1 current blockade): 3.04 ± 2.01 µM
SMILES: O=C(COC(=O)c1ccccc1-c1ccccc1)NC12CC3CC(CC(C3)C1)C2 [Compound 23, 2‐((3S,5S,7S)‐adamantan‐1‐ylamino)‐2‐oxoethyl [1,1′‐biphenyl]‐2‐carboxylate]
effect on response to acetone, local treatment ([1]; 1 μg subcutaneous intraplantar (i.pl.)): alleviated oxaliplatin‐induced cold sensitivity; also recorded: significant antinociceptive effect | effect on licking response to acetone drops, systemic treatment ([1]; 5 mg·kg^−1 i.p., vs vehicle): no significant effect; also recorded: did not significantly affect | effect on withdrawal latency to dry ice, systemic treatment [2]: did not exhibit cold antinociceptive effects; also recorded: did not significantly affect
